Measured values as given in patent US4908441A, “Deoxyadenosine compounds and methods of making and using the same” (Warner-Lambert Company, priority 1988, dated 1990).
In brackets after ≈: the same amount, converted by molar mass.

Assays:
[1] = water solubility; format: physicochemical
[2] = mammals and Phase 1 clinical trial in patients; Carson et al. 1984; cited from earlier work
[3] = tested on: L1210 leukemia cells; assay: in vivo assay for antileukemic activity (median lifespan); set-up: species or system mouse (male CD2 F1); key to % T/C Animals (1): Tx = Toxic; details: IP once daily Days 3-7
Procedure: Another test protocol is the in vivo assay for antileukemic activity. This assay is carried out with male CD2 F1 mice (six per treatment group) that weigh 22-24 grams at first treatment. L1210 leukemia cells are harvested from the peritoneal ascites fluid of a leukemic male DBA2 mouse and diluted with sterile 0.9% saline containing 2.1% W/V bovine serum albumin, 2000 U/ml penicillin, and 0.3 mg/ml streptomycin. The cells are counted with a Coulter counter. The mice are randomized, inoculated with 10^4 L1210 cells (0.5 ml, IP), and rerandomized to treatment or control groups on Day 0. The test compound is dissolved in 10% aqueous dimethylsulfoxide. Treatment groups are injected IP with 0.5 ml of freshly made DMSO solutions of the test compound once daily on Days 3-7. Control mice are treated with 0.5 ml 10% dimethylsulfoxide. All mice are weighed on Days 3 and 7 and all dying mice are autopsied to confirm the presence of advanced leukemia. A % T/C value [T/C computed as (median lifespan of the treated group/median lifespan of the control group)] greater than 125 is considered as showing significant activity. The results for nucleotide compounds and compositions of the invention exemplified by 3'-acetyl-2-chloro-2'-deoxy-5'-adenylic acid, monosodium salt, are presented in Table I.

[4] = tested on: Colon 08; assay: tumor growth delay assay, Colon 08; format: in vivo, mouse (CD2F1 hybrid); set-up: key to Rating: Tx: Toxic; ++++: High Activity; +++: Marked Activity; ++: Moderate Activity; +: Slight Activity; -: Inactive; UT: Unsatisfactory Test; details: 15 mg/kg (dose of greatest activity), IP
Procedure: (§1) A test protocol to show activity of the compounds of the present invention against solid tumors was that described below, for example, in inhibiting the growth of colon tumors.
(§2) The tumor growth delay assay assesses the antitumor activity of a test agent by measurement of the treatment-induced delay of tumor growth.
(§3) Test animals were CD2F1 hybrid mice derived from the inbred strain of tumor origin. After the required mice were randomized they received 30-50 mg subcutaneous implants of either colon 36 or colon 8 by trocar on Day 0. Samples of each donor tumor were incubated in thioglycolate media as a check for contamination of the tumor material. After tumor inoculation mice were rerandomized and distributed at 10 mice per treatment group (20 for control).
(§4) Drug treatment was initiated when tumors reached measurement in two dimensions by the formula:
(§5) tumor weight (mg)=(a+b^2)
(§6) where a and b are the tumor length and width, respectively. Drug, suspended in methyl-cellulose, was administered intraperitoneally Q4HX3 for nine consecutive days in a range of toxic to nontoxic doses. Tumor-bearing control groups were injected with methyl-cellulose. Animal survival was monitored daily. Tumors were measured twice weekly and animal weights recorded on a weekly basis. All dead mice were autopsied to determine the cause of death (drug or tumor). Any mouse bearing a tumor larger than the smallest lethal control tumor for two consecutive measurements was sacrificed, provided that greater than 25 days had elapsed since last treatment. Any tumor-free mouse was retained long enough so that a single surviving tumor cell at last treatment could grow to an unmistakable subcutaneous tumor.
(§7) T/C was calculated based on the difference in days required for the treated (T) and control (C) groups to reach an evaluation size of 1000 mg. Gross and net logs of cell kill were determined based on standard methodologies. The degree of activity or rating is a function of cell kill. Activity is defined in accordance with the standard methodologies as follows: […]

[5] = tested on: Colon 36; assay: tumor growth delay assay, Colon 36; format: in vivo, mouse (CD2F1 hybrid); set-up: key to Rating: Tx: Toxic; ++++: High Activity; +++: Marked Activity; ++: Moderate Activity; +: Slight Activity; -: Inactive; UT: Unsatisfactory Test; details: 9.5 mg/kg (dose of greatest activity), IP
Procedure: as §1, §2, §3, §4, §5, §6, §7

[6] = difference in days to reach 1000 mg

| Structure (SMILES) | water solubility (in words) [1] | solubility ([1]; in water) [µg/mL] | antileukemic and immunosuppressive activity [2] | % T/C Animals (1) ([3]; 48 mg/kg, >125 significant) [%] | % T/C Animals (2) ([3]; 48 mg/kg, >125 significant) [%] | % T/C Animals (1) ([3]; 77 mg/kg, >125 significant) [%] | % T/C Animals (2) ([3]; 77 mg/kg, >125 significant) [%] | % T/C Animals (1) ([3]; 124 mg/kg) | % T/C Animals (2) ([3]; 124 mg/kg, >125 significant) [%] | % T/C Animals (1) ([3]; 200 mg/kg) | Rating [4] | T/C [4, 6] | Net Kill ([4]; net logs of cell kill) | Rating [5] | T/C [5, 6] | Net Kill ([5]; net logs of cell kill) |
| --- | --- | --- | --- | --- | --- | --- | --- | --- | --- | --- | --- | --- | --- | --- | --- | --- |
| Nc1nc(Cl)nc2c1ncn2[C@H]1C[C@H](O)[C@@H](CO)O1 [2-chloro-2'-deoxyadenosine] | sparingly soluble in water | ~1000 (≈ 3.5 mM) | antileukemic and immunosuppressive activity | – | – | – | – | – | – | – | – | – | – | – | – | – |
| CC(=O)O[C@H]1C[C@H](n2cnc3c(N)nc(Cl)nc32)O[C@@H]1COP(=O)([O-])O.O.[Na+] [Example 1, 2-Chloro-2'-deoxy-5'-adenylic Acid, 3'-acetate, Monosodium Salt, Monohydrate] | – | – | – | 124 | 149 | 126 | 112 | Tx | 87 | Tx | + | 12.9 | 0.4 | ++ | 14.0 | 0.6 |
